From patent US9822147B2, “Methods of treating ophthalmic diseases using NPR-B agonists” (priority 2009, dated 2017)
Numbered stars: 1 amine (or outer) side, 2 acyl side, 3 side chain; on linkers, the order of the positions; unused ones are H or OH. Square brackets hold non-standard residues; d marks the D form. Peptide text beside a SMILES is read from it. * marks the point of attachment. X4 = NCCCN[C@@H]1C[C@@H](C(=O)[*:2])N([*:1])C1; X16 = CCN[C@@H]1C[C@@H](C(=O)[*:2])N([*:1])C1; Pro(4R-NH2) = N[C@H]1CN[C@H](C(=O)O)C1; X9 = CN(C)CC[C@@H](N[*:1])C(=O)[*:2]; dOrn(Me2) = CN(C)CCC[C@@H](N)C(=O)O; X19 = O=C(C(CC1CCNCC1)N[*:1])[*:2]; X2 = O=C([C@H]1CCCN([*:1])C1)[*:2]; X1 = CCCCCCCCN1CCC[C@H](C(=O)*)C1; dDap(Me2) = CN(C)C[C@@H](N)C(=O)O; Hyp = O=C(O)[C@@H]1C[C@@H](O)CN1; NMeF = CN[C@@H](Cc1ccccc1)C(=O)O; NHcycloheptyl = C1CCCC(N*)CC1; NMeL = CN[C@@H](CC(C)C)C(=O)O; Octanoyl = CCCCCCCC(=O)*

These molecules were tested against T1, NPR-B (Homo sapiens, UniProt P20594) (assay: NPR-B induced production of cyclic GMP in human glaucoma trabecular meshwork cells (GTM-3)). Settings: not given.
T1 construct: a functional assay using endogenously NPR-B expressing GTM-3 cells; endogenous in cells; host or cells: GTM-3 (human glaucoma trabecular meshwork cells)
T1 sequence (P20594 23-1047): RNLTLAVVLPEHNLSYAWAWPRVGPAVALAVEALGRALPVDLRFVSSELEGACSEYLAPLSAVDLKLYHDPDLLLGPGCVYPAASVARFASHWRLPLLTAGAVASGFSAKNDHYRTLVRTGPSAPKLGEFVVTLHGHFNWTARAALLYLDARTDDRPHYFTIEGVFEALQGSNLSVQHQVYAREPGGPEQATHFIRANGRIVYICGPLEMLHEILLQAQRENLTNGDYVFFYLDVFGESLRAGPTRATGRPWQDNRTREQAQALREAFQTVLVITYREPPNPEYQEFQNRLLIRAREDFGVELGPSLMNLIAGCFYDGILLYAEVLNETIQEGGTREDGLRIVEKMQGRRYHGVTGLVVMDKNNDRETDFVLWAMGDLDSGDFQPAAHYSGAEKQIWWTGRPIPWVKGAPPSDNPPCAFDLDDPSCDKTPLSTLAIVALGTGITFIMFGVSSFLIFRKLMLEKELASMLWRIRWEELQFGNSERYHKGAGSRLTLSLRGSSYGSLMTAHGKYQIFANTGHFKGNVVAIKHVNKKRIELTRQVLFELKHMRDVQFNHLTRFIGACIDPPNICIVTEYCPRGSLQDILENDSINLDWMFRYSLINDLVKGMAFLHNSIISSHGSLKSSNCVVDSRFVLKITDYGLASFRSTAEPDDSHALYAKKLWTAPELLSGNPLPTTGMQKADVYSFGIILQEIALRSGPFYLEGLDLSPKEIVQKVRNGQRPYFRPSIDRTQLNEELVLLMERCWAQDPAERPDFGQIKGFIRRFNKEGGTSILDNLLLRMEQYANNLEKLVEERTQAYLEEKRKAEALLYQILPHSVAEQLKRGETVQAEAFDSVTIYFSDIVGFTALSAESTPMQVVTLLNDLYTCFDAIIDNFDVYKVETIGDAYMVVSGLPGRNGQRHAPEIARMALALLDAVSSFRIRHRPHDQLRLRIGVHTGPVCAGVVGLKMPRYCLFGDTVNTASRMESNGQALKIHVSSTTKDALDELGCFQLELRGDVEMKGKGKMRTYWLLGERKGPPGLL
Type: cell-based

SMILES | EC50 [nM]
CCCCCCCC(=O)N1CCC[C@H](C(=O)N[C@@H](Cc2ccccc2)C(=O)NCC(=O)N[C@@H](CC(C)C)C(=O)N2C[C@H](N)C[C@H]2C(=O)N(C)[C@@H](CC(C)C)C(=O)N[C@@H](CC(=O)O)C(=O)N[C@@H](CCCNC(=N)N)C(=O)N[C@H](C(N)=O)[C@@H](C)CC)C1 [JAL-1320, Occ-Sni-Phe-Gly-Leu-Tap-Nml-Asp-Arg-Ile-NH2] (Octanoyl-[X2]FGL[Pro(4R-NH2)][NMeL]DRI-NH2) | < 1000

Same assay, conditions: group by EC50 and Emax (CNP = 100%); Table 4; read-out: Activity (group), NPR-B activation assayed with GTM-3 cells

EC50 [nM] | SMILES
< 1000 | CCCCCCCCN1CCC[C@H](C(=O)N[C@@H](Cc2ccccc2)C(=O)N[C@H](CN(C)C)C(=O)N[C@@H](CC(C)C)C(=O)N2C[C@H](N)C[C@H]2C(=O)N(C)[C@@H](CC(C)C)C(=O)N[C@H](C(=O)N[C@@H](CCCNC(=N)N)C(=O)N[C@H](C(N)=O)[C@@H](C)CC)C(C)C)C1 [JAL-1405, Oct-Sni-Phe-dap(Me2)-Leu-Tap-Nml-Val-Arg-Ile-NH2] (X1-F[dDap(Me2)]L[Pro(4R-NH2)][NMeL]VRI-NH2)
< 1000 | CCCCCCCCN1CCC[C@H](C(=O)N[C@@H](Cc2ccccc2)C(=O)N[C@H](CCCNC(=N)N)C(=O)N[C@@H](CC(C)C)C(=O)N2C[C@H](O)C[C@H]2C(=O)N(C)[C@@H](CC(C)C)C(=O)N[C@@H](CC(=O)O)C(=O)N[C@@H](CCCNC(=N)N)C(=O)N[C@H](C(N)=O)[C@@H](C)CC)C1 [JAL-1297, Oct-Sni-Phe-arg-Leu-Hyp-Nml-Asp-Arg-Ile-NH2] (HELM PEPTIDE1{[CCCCCCCCN1CCC[C@H](C(=O)[*:2])C1].F.[dR].L.[Hyp].[meL].D.R.I.[am]}$$$$V2.0)
< 1000 | CCCCCCCC(=O)N[C@H](C)C(=O)N[C@@H](Cc1ccccc1)C(=O)N[C@H](CCCN(C)C)C(=O)N[C@@H](CC(C)C)C(=O)N1C[C@H](O)C[C@H]1C(=O)N(C)[C@@H](CC(C)C)C(=O)N[C@@H](CC(=O)O)C(=O)N[C@@H](CCCNC(=N)N)C(=O)N[C@H](C(N)=O)[C@@H](C)CC [JAL-1288, Occ-ala-Phe-orn(Me2)-Leu-Hyp-Nml-Asp-Arg-Ile-NH2] (HELM PEPTIDE1{[CCCCCCCC(=O)[*:2]].[dA].F.[CN(C)CCC[C@@H](N[*:1])C(=O)[*:2]].L.[Hyp].[meL].D.R.I.[am]}$$$$V2.0)
< 1000 | CCCCCCCC(=O)N1CCCC[C@@H]1C(=O)N(C)[C@@H](Cc1ccccc1)C(=O)N[C@H](CCCNC(=N)N)C(=O)N[C@@H](CC(C)C)C(=O)N1CCC[C@H]1C(=O)N(C)[C@@H](CC(C)C)C(=O)N[C@@H](CC(=O)O)C(=O)N[C@@H](CCCNC(=N)N)C(=O)N[C@H](C(N)=O)[C@@H](C)CC [JAL-1077, Occ-pip-Nmf-arg-Leu-Pro-Nml-Asp-Arg-Ile-NH2] (HELM PEPTIDE1{[CCCCCCCC(=O)[*:2]].[O=C([C@H]1CCCCN1[*:1])[*:2]].[meF].[dR].L.P.[meL].D.R.I.[am]}$$$$V2.0)
< 1000 | CCCCCCCC(=O)N1CCC[C@H](C(=O)N[C@@H](Cc2ccccc2)C(=O)N[C@H](CC(C)C)C(=O)N[C@@H](CC(C)C)C(=O)N2C[C@H](NCC)C[C@H]2C(=O)N(C)[C@@H](CC(C)C)C(=O)N[C@@H](CC(=O)O)C(=O)N[C@@H](CCCNC(=N)N)C(=O)N[C@H](C(N)=O)[C@@H](C)CC)C1 [JAL-1349, Occ-Sni-Phe-leu-Leu-Tap(Et)-Nml-Asp-Arg-Ile-NH2] (Octanoyl-[X2]F[dL]L[X16][NMeL]DRI-NH2)
< 1000 | CCCCCCCC(=O)N1CCC[C@H](C(=O)N[C@@H](Cc2ccccc2)C(=O)N[C@H](CC(C)C)C(=O)N[C@@H](CC(C)C)C(=O)N2C[C@H](NCCCN)C[C@H]2C(=O)N(C)[C@@H](CC(C)C)C(=O)N[C@@H](CC(=O)O)C(=O)N[C@@H](CCCNC(=N)N)C(=O)N[C@H](C(N)=O)[C@@H](C)CC)C1 [JAL-1372, Occ-Sni-Phe-leu-Leu-Tap(Ap)-Nml-Asp-Arg-Ile-NH2] (Octanoyl-[X2]F[dL]L[X4][NMeL]DRI-NH2)
< 1000 | CCCCCCCC(=O)N1CCC[C@H](C(=O)N[C@@H](Cc2ccccc2)C(=O)N[C@H](CCCN(C)C)C(=O)N[C@@H](CC(C)C)C(=O)N2C[C@H](O)C[C@H]2C(=O)N(C)[C@@H](CC(C)C)C(=O)N[C@H](C(=O)N[C@@H](CCCNC(=N)N)C(=O)NC2CCCCCC2)[C@@H](C)O)C1 [JAL-1895, Occ-Sni-Phe-orn(Me2)-Leu-Hyp-Nml-Thr-Arg-Che] (Octanoyl-[X2]F[dOrn(Me2)]L[Hyp][NMeL]TR-NHcycloheptyl)
< 1000 | CCCCCCCC(=O)N1CCC[C@H](C(=O)N[C@@H](Cc2ccccc2)C(=O)N[C@H](CC(C)C)C(=O)N[C@@H](CC(C)C)C(=O)N2C[C@H](O)C[C@H]2C(=O)N(C)[C@@H](CC(C)C)C(=O)N[C@@H](CC(=O)O)C(=O)N[C@@H](CCCNC(=N)N)C(=O)N(C)[C@H](C(N)=O)[C@@H](C)CC)C1 [JAL-1569, Occ-Sni-Phe-leu-Leu-Hyp-Nml-Asp-Arg-Nmi-NH2] (HELM PEPTIDE1{[CCCCCCCC(=O)[*:2]].[O=C([C@H]1CCCN([*:1])C1)[*:2]].F.[dL].L.[Hyp].[meL].D.R.[meI].[am]}$$$$V2.0)
< 1000 | CCCCCCCC(=O)N1CCC[C@H](C(=O)N[C@@H](Cc2ccccc2)C(=O)N[C@H](CCN(C)C)C(=O)N[C@@H](CC(C)C)C(=O)N2C[C@H](O)C[C@H]2C(=O)N(C)[C@@H](CC(C)C)C(=O)N[C@@H](CC(=O)O)C(=O)N[C@@H](CCCNC(=N)N)C(=O)N[C@H](C(N)=O)[C@@H](C)CC)C1 [JAL-1785, Occ-Sni-Phe-dab(Me2)-Leu-Hyp-Nml-Asp-Arg-Ile-NH2] (Octanoyl-[X2]F[X9]L[Hyp][NMeL]DRI-NH2)
< 1000 | CCCCCCCC(=O)OC(C)C(=O)N[C@@H](Cc1ccccc1)C(=O)N[C@H](CC(C)C)C(=O)N[C@@H](CC(C)C)C(=O)N1C[C@H](O)C[C@H]1C(=O)N(C)[C@@H](CC(C)C)C(=O)N[C@@H](CC(=O)O)C(=O)N[C@@H](CCCNC(=N)N)C(=O)N[C@H](C(N)=O)[C@@H](C)CC (stereo partly drawn) [JAL-1294, (AR-201-49)-Phe-leu-Leu-Hyp-Nml-Asp-Arg-Ile-NH2] (HELM PEPTIDE1{[CCCCCCCC(=O)[*:2]].[CC(O[*:1])C(=O)[*:2]].F.[dL].L.[Hyp].[meL].D.R.I.[am]}$$$$V2.0)
< 1000 | CCCCCCCC(=O)N1CCC[C@H](C(=O)N[C@@H](Cc2ccccc2)C(=O)NC(CC2CCNCC2)C(=O)N[C@@H](CC(C)C)C(=O)N2C[C@H](O)C[C@H]2C(=O)N(C)[C@@H](CC(C)C)C(=O)N[C@@H](CC(=O)O)C(=O)N[C@@H](CCCNC(=N)N)C(=O)N[C@H](C(N)=O)[C@@H](C)CC)C1 (stereo partly drawn) [JAL-1890, Occ-Sni-Phe-Egg-Leu-Hyp-Nml-Asp-Arg-Ile-NH2] (Octanoyl-[X2]F[X19]L[Hyp][NMeL]DRI-NH2)
< 1000 | CCCCCCCC(=O)N1CCC[C@H](C(=O)N[C@@H](Cc2ccccc2)C(=O)N[C@H](CC(C)C)C(=O)N[C@@H](CC(C)C)C(=O)N2C[C@H](N)C[C@H]2C(=O)N(C)[C@@H](CC(C)C)C(=O)N[C@@H](CC(=O)O)C(=O)N2CCC[C@H]2C(=O)N[C@H](C(N)=O)[C@@H](C)CC)C1 [JAL-1559, Occ-Sni-Phe-leu-Leu-Tap-Nml-Asp-Pro-Ile-NH2] (Octanoyl-[X2]F[dL]L[Pro(4R-NH2)][NMeL]DPI-NH2)
< 1000 | CCCCCCCC(=O)N1CCC[C@H](C(=O)N(C)[C@@H](Cc2ccccc2)C(=O)N[C@H](CC(C)C)C(=O)N[C@@H](CC(C)C)C(=O)N2C[C@H](O)C[C@H]2C(=O)N(C)[C@@H](CC(C)C)C(=O)N[C@@H](CC(=O)O)C(=O)N2CCC[C@H]2C(=O)NC2CCCCCC2)C1 [JAL-1597, Occ-Sni-Nmf-leu-Leu-Hyp-Nml-Asp-Pro-Che] (Octanoyl-[X2][NMeF][dL]L[Hyp][NMeL]DP-NHcycloheptyl)
< 1000 | CCCCCCCC(=O)N[C@H](C)C(=O)N[C@@H](Cc1ccccc1)C(=O)N[C@H](CC(C)C)C(=O)N[C@@H](CC(C)C)C(=O)N1C[C@H](O)C[C@H]1C(=O)N(C)[C@@H](CC(C)C)C(=O)N[C@H](C(=O)N[C@@H](CCCNC(=N)N)C(=O)N[C@H](C(N)=O)[C@@H](C)CC)C(C)C [JAL-1332, Occ-ala-Phe-leu-Leu-Hyp-Nml-Val-Arg-Ile-NH2] (HELM PEPTIDE1{[CCCCCCCC(=O)[*:2]].[dA].F.[dL].L.[Hyp].[meL].V.R.I.[am]}$$$$V2.0)
< 1000 | CCCCCCCC(=O)N1CCC[C@H](C(=O)N[C@@H](Cc2ccccc2)C(=O)N[C@H](CC(C)C)C(=O)N[C@@H](CC(C)C)C(=O)N2C[C@H](O)C[C@H]2C(=O)N[C@H](C(=O)N[C@@H](CC(=O)O)C(=O)N[C@@H](CCCNC(=N)N)C(=O)N[C@H](C(N)=O)[C@@H](C)CC)[C@@H](C)CC)C1 [JAL-1625, Occ-Sni-Phe-leu-Leu-Hyp-Ile-Asp-Arg-Ile-NH2] (HELM PEPTIDE1{[CCCCCCCC(=O)[*:2]].[O=C([C@H]1CCCN([*:1])C1)[*:2]].F.[dL].L.[Hyp].I.D.R.I.[am]}$$$$V2.0)
